Legend:
Assay in all cases: NCI-60 panel test
Assay type in all cases: cell-based
786-0 = conditions: Homo sapiens; 786-0, NCI-60 5-dose study
Experimental: (§1) FIG. 7. NCI-60 panel test. The effect of AOH1160 on growth of the NCI-60 panel, which consists of 60 cancer cell lines representing 9 major cancer types, was tested in a 5-dose study. Shown are the Log IC50 values determined for each cell line. […] This study was performed by the National Institute of Cancer.
(§2) As observed in FIG. 7, the effect of AOH1160 on growth of the NCI-60 panel, which consists of 60 cancer cell lines representing 9 major cancer types, was tested in a 5-dose study. Shown are the Log IC50 values determined for each cell line.

A549/ATCC = conditions: Homo sapiens, NCI-60 5-dose study
Experimental: as §1, §2

ACHN = conditions: Homo sapiens, NCI-60 5-dose study
Experimental: as §1, §2

BT-549 = conditions: Homo sapiens; BT-549, NCI-60 5-dose study
Experimental: as §1, §2

CCRF-CEM = conditions: Homo sapiens, NCI-60 5-dose study
Experimental: as §1, §2

COLO 205 = conditions: Homo sapiens
Experimental: as §1, §2

DU-145 = conditions: Homo sapiens; DU-145, NCI-60 5-dose study
Experimental: as §1, §2

HCC-2998 = conditions: Homo sapiens; HCC-2998, NCI-60 5-dose study
Experimental: as §1, §2

HCT-116 = conditions: Homo sapiens; HCT-116, NCI-60 5-dose study
Experimental: as §1, §2

HCT-15 = conditions: Homo sapiens; HCT-15, NCI-60 5-dose study
Experimental: as §1, §2

HL-60(TB) = conditions: Homo sapiens, NCI-60 5-dose study
Experimental: as §1, §2

HS 578T = conditions: Homo sapiens, NCI-60 5-dose study
Experimental: as §1, §2

LOX IMVI = conditions: Homo sapiens, NCI-60 5-dose study
Experimental: as §1, §2

MCF7 = conditions: Homo sapiens; MCF7, NCI-60 5-dose study
Experimental: as §1, §2

MDA-MB-231/ATCC = conditions: Homo sapiens, NCI-60 5-dose study
Experimental: as §1, §2

MDA-MB-435 = conditions: Homo sapiens; MDA-MB-435, NCI-60 5-dose study
Experimental: as §1, §2

MDA-MB-468 = conditions: Homo sapiens; MDA-MB-468, NCI-60 5-dose study
Experimental: as §1, §2

NCI-H226 = conditions: Homo sapiens; NCI-H226, NCI-60 5-dose study
Experimental: as §1, §2

NCI-H322M = conditions: Homo sapiens, NCI-60 5-dose study
Experimental: as §1, §2

NCI-H460 = conditions: Homo sapiens; NCI-H460, NCI-60 5-dose study
Experimental: as §1, §2

NCI-H522 = conditions: Homo sapiens; NCI-H522, NCI-60 5-dose study
Experimental: as §1, §2

NCI/ADR-RES = conditions: Homo sapiens, NCI-60 5-dose study
Experimental: as §1, §2

OVCAR-8 = conditions: Homo sapiens; OVCAR-8, NCI-60 5-dose study
Experimental: as §1, §2

PC-3 = conditions: Homo sapiens; PC-3, NCI-60 5-dose study
Experimental: as §1, §2

RPMI-8226 = conditions: Homo sapiens; RPMI-8226, NCI-60 5-dose study
Experimental: as §1, §2

SF-268 = conditions: Homo sapiens
Experimental: as §1, §2

SK-MEL-28 = conditions: Homo sapiens; SK-MEL-28, NCI-60 5-dose study
Experimental: as §1, §2

SK-MEL-2 = conditions: Homo sapiens; SK-MEL-2, NCI-60 5-dose study
Experimental: as §1, §2

SK-OV-3 = conditions: Homo sapiens; SK-OV-3, NCI-60 5-dose study
Experimental: as §1, §2

SNB-19 = conditions: Homo sapiens; SNB-19, NCI-60 5-dose study
Experimental: as §1, §2

SNB-75 = conditions: Homo sapiens; SNB-75, NCI-60 5-dose study
Experimental: as §1, §2

| Compound | GI50 (786-0) [nM] | GI50 (A549/ATCC) [nM] | GI50 (ACHN) [nM] | GI50 (BT-549) [nM] | GI50 (CCRF-CEM) [nM] | GI50 (COLO 205) [nM] | GI50 (DU-145) [nM] | GI50 (HCC-2998) [nM] | GI50 (HCT-116) [nM] | GI50 (HCT-15) [nM] | GI50 (HL-60(TB)) [nM] | GI50 (HS 578T) [nM] | GI50 (LOX IMVI) [nM] | GI50 (MCF7) [nM] | GI50 (MDA-MB-231/ATCC) [nM] | GI50 (MDA-MB-435) [nM] | GI50 (MDA-MB-468) [nM] | GI50 (NCI-H226) [nM] | GI50 (NCI-H322M) [nM] | GI50 (NCI-H460) [nM] | further results |
| --- | --- | --- | --- | --- | --- | --- | --- | --- | --- | --- | --- | --- | --- | --- | --- | --- | --- | --- | --- | --- | --- |
| COc1cccc(Oc2ccccc2NC(=O)CNC(=O)c2cccc3ccccc23)c1 [PCNA7/ AOH1996] | 182 | 316 | 398 | 295 | 363 | 282 | 708 | 1260 | 95.5 | 129 | 81.3 | 380 | 269 | 100 | 776 | 70.8 | 331 | 2510 | 1290 | 295 | GI50 (NCI-H522): 178 nM; GI50 (NCI/ADR-RES): 240 nM; GI50 (OVCAR-8): 692 nM; GI50 (PC-3): 282 nM; GI50 (RPMI-8226): 955 nM; GI50 (SF-268): 550 nM; GI50 (SK-MEL-28): 4370 nM; GI50 (SK-MEL-2): 182 nM; GI50 (SK-OV-3): 490 nM; GI50 (SNB-19): 617 nM; GI50 (SNB-75): 129 nM |
| O=C(CNC(=O)c1cccc2ccccc12)Nc1ccccc1Oc1cccc(O)c1 [PCNA2] | 10000 | 9550 | 17400 | 25100 | 4170 | 14800 | 9550 | 25100 | 1380 | 3160 | 1320 | 5750 | 15100 | 4470 | 17800 | 759 | 3550 | 25100 | 10700 | 5750 | GI50 (NCI-H522): 1620 nM; GI50 (NCI/ADR-RES): 7940 nM; GI50 (OVCAR-8): 11500 nM; GI50 (PC-3): 7080 nM; GI50 (RPMI-8226): 8130 nM; GI50 (SF-268): 20900 nM; GI50 (SK-MEL-28): 1860 nM; GI50 (SK-MEL-2): 25100 nM; GI50 (SK-OV-3): 12900 nM; GI50 (SNB-19): 8710 nM; GI50 (SNB-75): 3310 nM |
| O=C(CNC(=O)c1cccc2ccccc12)Nc1ccccc1Oc1ccccc1 [AOH1160] | 447 | 457 | 832 | 407 | 347 | 309 | 324 | 708 | 324 | 245 | 269 | 363 | 309 | 309 | 977 | 42.7 | 324 | 2190 | 631 | 331 | GI50 (NCI-H522): 151 nM; GI50 (NCI/ADR-RES): 240 nM; GI50 (OVCAR-8): 316 nM; GI50 (PC-3): 302 nM; GI50 (RPMI-8226): 316 nM; GI50 (SF-268): 437 nM; GI50 (SK-MEL-28): 813 nM; GI50 (SK-MEL-2): 269 nM; GI50 (SK-OV-3): 398 nM; GI50 (SNB-19): 457 nM; GI50 (SNB-75): 229 nM |
| O=C(CNC(=O)c1cccc2ccccc12)Nc1ccccc1Oc1ccc(O)cc1 [PCNA1] | 1050 | 1480 | 1860 | 1620 | 933 | 794 | 1150 | 8910 | 977 | 912 | 708 | 1350 | 1740 | 851 | 3160 | 162 | 550 | 4790 | 1150 | 977 | GI50 (NCI-H522): 851 nM; GI50 (NCI/ADR-RES): 1200 nM; GI50 (OVCAR-8): 1320 nM; GI50 (PC-3): 1320 nM; GI50 (RPMI-8226): 977 nM; GI50 (SF-268): 3310 nM; GI50 (SK-MEL-28): 851 nM; GI50 (SK-MEL-2): 25100 nM; GI50 (SK-OV-3): 1580 nM; GI50 (SNB-19): 1410 nM; GI50 (SNB-75): 589 nM |
| COc1ccc(Oc2ccccc2NC(=O)CNC(=O)c2cccc3ccccc23)cc1 [PCNA6] | 1150 | 1260 | 1510 | 1120 | 912 | 646 | 1020 | 1410 | 617 | 589 | 617 | 1700 | 1350 | 257 | 2240 | 83.2 | 457 | 4270 | 1230 | 851 | GI50 (NCI-H522): 195 nM; GI50 (NCI/ADR-RES): 427 nM; GI50 (OVCAR-8): 1150 nM; GI50 (PC-3): 1050 nM; GI50 (RPMI-8226): 1120 nM; GI50 (SF-268): 2040 nM; GI50 (SK-MEL-28): 380 nM; GI50 (SK-MEL-2): 2290 nM; GI50 (SK-OV-3): 1020 nM; GI50 (SNB-19): 1230 nM |
